For data set [1], the target named is T1, Na^+ /H^+ exchange transport (rat platelets) (Rattus norvegicus, UniProt P26431).
T1 construct: the thus collected supernatant was used as platelet rich plasma; endogenous in cells; host or cells: platelets (platelet rich plasma) of Wistar rat
Nature of the data set: Inhibition studies on Na^+ /H^+ exchange transport: swelling of rat platelets induced by sodium propionate. In kind it is cell-based, rat (Wistar). To be noted: rat platelet swelling, sodium propionate buffer pH 6.7, 20 seconds; 300 μM amiloride = 100% inhibition; read-out: IC5O value (inhibitory actions of test compounds on Na^+ /H^+ exchange transport). The procedure: The Na^+ /H^+ exchange transport inhibitory activity was measured in accordance with the method of Scholz et al. [Br. J. Pharmacol., 109, 562 (1993)], using the swelling of rat platelets induced by sodium propionate as an index.
Under ether anesthesia, blood sample (8 ml) was collected from the abdominal aorta of Wistar rat and mixed with 1 ml of acid citrate dextrose as an anticoagulant. The resulting mixture was immediately centrifuged at 90×g for 10 minutes, and the thus collected supernatant was used as platelet rich plasma. Next, the thus prepared platelet rich plasma (10×10^6 platelets/50 μl) was added to 250 μl of 140 mM sodium propionate buffer (pH 6.7, 1% dimethyl sulfoxide in final concentration) containing each test compound dissolved in dimethyl sulfoxide, and the decrease in absorbance caused by the swelling of platelets was periodically measured using Hema-Tracer (manufactured by Nk).
The decreased absorbance ratio 20 seconds after the addition of platelet rich plasma was measured as the Na^+ /H^+ exchange activity, and the inhibitory activity of each test compound was expressed as relative activity when the action of 300 μM amiloride was defined as 100% inhibition.
In this case, each test result was evaluated from 50% inhibition concentration (IC50 value) by using probit methods.

The subject of data set [2] is Na^+ /H^+ exchange transport. To be noted: background statement, Circulation, 79, 1257 (1989); cited from earlier work.
For data set [3] the following is noted: background statement; cited from earlier work.
The subject of data set [4] is male SD rats. Set-up: species or system rat (SD). The conditions noted are these: rat, in vivo, iv, 100 mg/kg.
Data set [5] deals with male SD rats. Set-up: species or system rat (SD). The conditions noted are these: rat, in vivo, iv, 10 mg/kg.

SMILES strings stand for the structures. Counter-ions that a name gives are not always drawn. Like-named read-outs stand apart in the source and are kept apart here. Some results are limits rather than exact numbers.

T1 sequence (P26431 whole entry): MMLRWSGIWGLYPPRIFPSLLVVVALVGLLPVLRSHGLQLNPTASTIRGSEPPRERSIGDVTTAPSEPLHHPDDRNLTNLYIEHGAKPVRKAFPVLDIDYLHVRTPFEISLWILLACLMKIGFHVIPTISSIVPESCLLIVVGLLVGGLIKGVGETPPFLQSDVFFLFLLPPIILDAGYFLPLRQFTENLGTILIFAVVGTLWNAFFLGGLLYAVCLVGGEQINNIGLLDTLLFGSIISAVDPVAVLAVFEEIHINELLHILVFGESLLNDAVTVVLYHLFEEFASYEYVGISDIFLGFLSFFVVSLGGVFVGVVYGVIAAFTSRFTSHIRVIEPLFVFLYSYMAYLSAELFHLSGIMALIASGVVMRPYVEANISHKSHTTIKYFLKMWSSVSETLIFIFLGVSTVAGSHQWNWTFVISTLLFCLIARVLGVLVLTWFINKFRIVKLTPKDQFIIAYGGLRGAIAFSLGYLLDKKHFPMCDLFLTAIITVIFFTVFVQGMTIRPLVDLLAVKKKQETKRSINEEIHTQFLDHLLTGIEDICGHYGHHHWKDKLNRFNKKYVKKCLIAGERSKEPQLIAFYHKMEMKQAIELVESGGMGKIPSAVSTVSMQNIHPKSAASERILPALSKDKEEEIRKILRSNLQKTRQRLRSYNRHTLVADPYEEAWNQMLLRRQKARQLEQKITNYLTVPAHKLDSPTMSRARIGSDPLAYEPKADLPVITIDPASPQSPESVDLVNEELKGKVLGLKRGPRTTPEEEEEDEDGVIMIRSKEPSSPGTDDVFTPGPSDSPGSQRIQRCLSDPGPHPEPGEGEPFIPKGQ

As for `Cc1nc2c(cc1C(=O)N=C(N)N)CCCC2O` (stereo not drawn) [Compound A, 8-Hydroxy-2-methyl-5,6,7,8-tetrahydrocyclohexa[b]pyridine-3-carbonylguanidine], the IC50 in data set [1] lay in the range of 100 to 990 nM. On the same count and under the same terms, with `Cc1nc2c(cc1C(=O)N=C(N)N)CC(C)CC2` (stereo not drawn) [Compound B, 2,6-Dimethyl-5,6,7,8-tetrahydrocyclohexa[b]pyridine-3-carbonylguanidine] the figure was at most 99 nM. The same measure, in the same setting: in the case of `CCc1nc2c(cc1C(=O)N=C(N)N)CCCCC2` [Compound C, 2-Ethyl-6,7,8,9-tetrahydro-5H-cyclohepta[b]pyridine-3-carbonylguanidine] it was at most 99 nM; in that of `Cc1nc2c(cc1C(=O)N=C(N)N)C(O)CCCC2` (stereo not drawn) [Compound D, 5-Hydroxy-2-methyl-6,7,8,9-tetrahydro-5H-cyclohepta[b]pyridine-3-carbonylguanidine], 100 to 990 nM.

Take `Cc1nc2c(cc1C(=O)N=C(N)N)CCCCC2C` (stereo not drawn) [Compound E, 2,9-Dimethyl-6,7,8,9-tetrahydro-5H-cyclohepta[b]pyridine-3-carbonylguanidine]: in data set [1], the IC50 was at most 99 nM. Same read-out and setting: in the case of `COC1CCCCc2cc(C(=O)N=C(N)N)c(C)nc21` (stereo not drawn) [Compound F, 9-Methoxy-2-methyl-6,7,8,9-tetrahydro-5H-cyclohepta[b]pyridine-3-carbonylguanidine] it was at most 99 nM; in that of `NC(N)=NC(=O)c1cc2c(nc1C(F)(F)F)CCCCC2` [Compound G, 2-Trifluoromethyl-6,7,8,9-tetrahydro-5H-cyclohepta[b]pyridine-3-carbonylguanidine], 100 to 990 nM; in that of `NC(N)=NC(=O)c1cc2c(nc1Cl)CCCCC2` [Compound H, 2-Chloro-6,7,8,9-tetrahydro-5H-cyclohepta[b]pyridine-3-carbonylguanidine], at most 99 nM. Same read-out and setting: in the case of `COc1nc2c(cc1C(=O)N=C(N)N)CCCCC2` [Compound I, 2-Methoxy-6,7,8,9-tetrahydro-5H-cyclohepta[b]pyridine-3-carbonylguanidine] it was at least 1000 nM; in that of `NC(N)=NC(=O)c1cc2c(nc1-c1cccnc1)CCCCC2` [Compound J, 2-(3-Pyridyl)-6,7,8,9-tetrahydro-5H-cyclohepta[b]pyridine-3-carbonylguanidine], at least 1000 nM.

Consider `Cc1nc2c(cc1C(=O)N=C(N)N)CCCC=C2` [Compound K, 2-Methyl-6,7-dihydro-5H-cyclohepta[b]pyridine-3-carbonylguanidine], for which, in data set [1], the IC50 was at most 99 nM. Consider `N=C(N)NC(=O)c1nc(Cl)c(N)nc1N` [amiloride], for which, in data set [2], the “Na^+ /H^+ exchange transport inhibitory action” value is given as “has a Na^+ /H^+ exchange transport inhibitory action”. Moreover, in data set [3], the accompanying actions entry is “accompanies hypotensive action and salt excretion action”; the anti-arrhythmic action entry is on record as “weak”. With `Cc1nc2c(cc1C(=O)N=C(N)N)CCCC=C2` [maleic acid salt of the compound (K), 2-Methyl-6,7-dihydro-5H-cyclohepta[b]pyridine-3-carbonylguanidine maleate], the death cases entry in data set [4] and in data set [5] was “no death cases were found” throughout. The “toxic changes attributable to the compound (K)” value in data set [4] and in data set [5] was “no toxic changes attributable to the compound (K) were observed” each time.
